The target in experiment [1] is DGKα (Homo sapiens (Human), UniProt P23743). Kind of experiment: In vitro DGKα inhibition assay (ADP-Glo). The conditions noted are these: first column of Table A; His-tagged human recombinant DGKα 0.1 nM, 50 μM ATP, 20 μM DLG. Format: biochemical. As for the experimental part:
(§1) The DGKα and DGKζ biochemical reactions were performed using His-tagged human recombinant enzymes (Signal Chem, DGKα, #D21-10BH; DGKζ, #D30-1OH)) and DLG (Dilauroyl-sn-glycerol) lipid substrate (Signal Chem, #D430-59). ADP-Glo assay was performed using ADP-Glo™ kinase Assay kit (Promega, #V9104). The reactions were carried out in assay buffer containing 40 mM Tris, pH 7.5, 0.1% CHAPS, 0.1% Prionex, 40 mM NaCl, 5 mM MgCl2, 1 mM CaCl2, and 1 mM DTT. DGKα reactions contained 0.1 nM DGKα, 50 μM ATP, and 20 μM DLG. And DGKζ reactions contained 0.4 nM DGKζ, 30 μM ATP, and 20 μM DLG.
(§2) For compound inhibition studies, 40 nL test compound in DMSO was added to wells of white polystyrene plates in 384-well (Greiner, #784075) or 1536-well format (Greiner, #782075). Compounds were added with top concentration of 2 mM with 11 point, 3-fold dilution series. Enzyme solution (contains 2× DGK enzyme concentration in 1× assay buffer) was added to the plate in 2 μL/well volume, followed by 2 μL/well of substrate solution (contains 2× concentration of ATP and DLG substrate in 1× assay buffer). Plates were then centrifuged for 1 min at 1200 RPM and sealed or lidded. For 4 μL reaction volume, test compounds were therefore diluted 100× to final top concentration of 20 μM. After 90 minute incubation, reactions were quenched by addition of 2 μL/well Promega ADP-Glo Reagent, followed by centrifugation and lidding. After 60 min incubation, 2 μL/well Promega Kinase Detection Reagent was added, plates centrifuged, and incubated for 30 min. Plates were then read using Luminescence method on BMG PHERAstar FSX plate reader. Percent inhibition was calculated and IC50s were determined using 4-parameter fit in Genedata Screener. Labcyte Echo acoustic dispenser was used for compound addition, and Formulatrix Tempest liquid handler was used for all reagent dispenses.
Background: ADP-Glo turns the ADP formed in a reaction into a luminescent signal.

Experiment [2] deals with DGKζ (Homo sapiens (Human), UniProt Q13574). Kind of experiment: In vitro DGKζ inhibition assay (ADP-Glo). Format: biochemical. The conditions noted are these: second column of Table A, head printed DGKα, presumably DGKζ; His-tagged human recombinant DGKζ 0.4 nM, 30 μM ATP, 20 μM DLG. As for the experimental part:
as §1, §2

SMILES strings stand for the structures.

Broadly, the IC50 is the concentration at which inhibition is half-maximal.

Sequence of DGKα (P23743 whole entry): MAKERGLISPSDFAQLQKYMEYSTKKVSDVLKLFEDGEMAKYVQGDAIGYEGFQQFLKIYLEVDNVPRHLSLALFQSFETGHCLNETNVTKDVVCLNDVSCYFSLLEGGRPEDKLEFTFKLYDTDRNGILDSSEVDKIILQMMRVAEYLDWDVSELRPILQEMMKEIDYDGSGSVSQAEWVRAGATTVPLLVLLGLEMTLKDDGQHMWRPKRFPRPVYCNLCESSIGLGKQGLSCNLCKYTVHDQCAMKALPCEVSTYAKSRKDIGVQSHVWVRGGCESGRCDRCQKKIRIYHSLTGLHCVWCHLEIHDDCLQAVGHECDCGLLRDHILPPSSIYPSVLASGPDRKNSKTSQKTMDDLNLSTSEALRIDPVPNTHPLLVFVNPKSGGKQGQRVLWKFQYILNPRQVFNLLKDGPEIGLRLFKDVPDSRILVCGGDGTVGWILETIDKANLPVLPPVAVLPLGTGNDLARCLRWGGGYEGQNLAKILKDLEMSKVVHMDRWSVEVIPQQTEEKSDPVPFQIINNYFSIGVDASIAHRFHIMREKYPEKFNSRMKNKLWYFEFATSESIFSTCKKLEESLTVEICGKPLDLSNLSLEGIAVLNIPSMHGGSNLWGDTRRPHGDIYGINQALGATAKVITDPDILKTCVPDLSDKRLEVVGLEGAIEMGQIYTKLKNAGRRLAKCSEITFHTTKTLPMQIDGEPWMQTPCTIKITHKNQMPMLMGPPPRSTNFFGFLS
Sequence of DGKζ (Q13574 whole entry): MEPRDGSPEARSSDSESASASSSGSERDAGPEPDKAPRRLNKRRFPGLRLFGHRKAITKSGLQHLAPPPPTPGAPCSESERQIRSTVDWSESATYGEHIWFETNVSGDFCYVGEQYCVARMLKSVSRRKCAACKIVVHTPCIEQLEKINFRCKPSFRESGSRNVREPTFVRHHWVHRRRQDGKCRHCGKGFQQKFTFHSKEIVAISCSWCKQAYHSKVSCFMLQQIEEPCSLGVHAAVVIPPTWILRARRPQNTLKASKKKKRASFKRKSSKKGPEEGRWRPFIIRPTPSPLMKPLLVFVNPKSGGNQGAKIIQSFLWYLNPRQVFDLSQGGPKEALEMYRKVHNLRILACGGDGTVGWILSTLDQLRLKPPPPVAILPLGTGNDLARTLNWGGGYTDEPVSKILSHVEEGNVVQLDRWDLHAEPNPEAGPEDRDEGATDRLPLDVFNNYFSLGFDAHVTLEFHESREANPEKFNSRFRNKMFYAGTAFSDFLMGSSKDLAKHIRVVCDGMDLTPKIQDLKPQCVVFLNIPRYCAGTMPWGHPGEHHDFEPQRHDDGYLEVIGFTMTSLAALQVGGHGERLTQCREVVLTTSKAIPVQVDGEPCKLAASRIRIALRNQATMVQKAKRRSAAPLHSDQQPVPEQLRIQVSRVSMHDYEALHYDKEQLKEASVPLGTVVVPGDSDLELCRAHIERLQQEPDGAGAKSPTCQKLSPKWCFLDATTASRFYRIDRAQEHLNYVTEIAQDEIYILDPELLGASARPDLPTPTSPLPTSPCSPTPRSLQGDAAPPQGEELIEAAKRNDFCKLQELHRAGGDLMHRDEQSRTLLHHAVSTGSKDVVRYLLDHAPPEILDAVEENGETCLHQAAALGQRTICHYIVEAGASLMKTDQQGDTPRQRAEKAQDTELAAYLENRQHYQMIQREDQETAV

For `CC[C@@H]1CN(c2nc(=O)[nH]c3c2nc(C)n3C[C@@H]2CCCO2)[C@@H](C)CN1C(c1ccc(Cl)cc1)C1CC(F)(F)C1` (stereo partly drawn) [Example 36, 6-((2S,5R)-4-((4-Chlorophenyl)(3,3-difluorocyclobutyl)methyl)-5-ethyl-2-methylpiperazin-1-yl)-8-methyl-9-(((S)-tetrahydrofuran-2-yl)methyl)-3,9-dihydro-2H-purin-2-one], the IC50 in experiment [1] was at most 10 nM; in experiment [2], at most 100 nM. Taken in the same sequence, the figures for `Cc1nc2c(N3C[C@@H](C)N(C(CC(C)C)c4ccc(Cl)cc4)C[C@@H]3C)nc(=O)n(C)c2n1C[C@@H]1CCCO1` (stereo partly drawn) [Example 16, 6-((2S,5R)-4-(1-(4-Chlorophenyl)-3-methylbutyl)-2,5-dimethylpiperazin-1-yl)-3,8-dimethyl-9-(((S)-tetrahydrofuran-2-yl)methyl)-3,9-dihydro-2H-purin-2-one] were at most 10 nM and at most 10 nM. Taken in the same sequence, the figures for `CC[C@@H]1CN(c2nc(=O)n(C)c3c2nc(C)n3C[C@H]2OCC[C@@H]2O)[C@@H](C)CN1C(c1ccc(Cl)cc1)C1CC(F)(F)C1` (stereo partly drawn) [Example 65, 6-((2S,5R)-4-((4-Chlorophenyl)(3,3-difluorocyclobutyl)methyl)-5-ethyl-2-methylpiperazin-1-yl)-9-(((2R,3S)-3-hydroxytetrahydrofuran-2-yl)methyl)-3,8-dimethyl-3,9-dihydro-2H-purin-2-one] were at most 10 nM and at most 10 nM. As for `Cc1nc2c(N3C[C@@H](C)N([C@@H](c4ccc(C(F)(F)F)cc4)C(C)C)C[C@@H]3C)nc(=O)n(C)c2n1C[C@@H]1CCCO1` [Example 54, 6-((2S,5R)-2,5-dimethyl-4-((R)-2-methyl-1-(4-(trifluoromethyl)phenyl)propyl)piperazin-1-yl)-3,8-dimethyl-9-(((S)-tetrahydrofuran-2-yl)methyl)-3,9-dihydro-2H-purin-2-one], the concentration for half-maximal inhibition (IC50) in experiment [1] and in experiment [2] was at most 10 nM throughout. In the case of `Cc1nc2c(N3C[C@@H](C)N(C(c4ccc(C(F)(F)F)cc4)[C@H]4CC4(F)F)C[C@@H]3C)nc(=O)n(C)c2n1C[C@@H]1CCCO1` (single isomer, unassigned) [Example 21], the IC50 in experiment [2] was at most 10 nM. For `CC[C@@H]1CN(c2nc(=O)n(C)c3c2nnn3C[C@H]2CCCO2)[C@@H](C)CN1[C@@H](CC)c1ccc(C(F)(F)F)cc1` [Example 30, 7-((2S,5R)-5-Ethyl-2-methyl-4-((S)-1-(4-(trifluoromethyl)phenyl)propyl)piperazin-1-yl)-4-methyl-3-(((R)-tetrahydrofuran-2-yl)methyl)-3,4-dihydro-5H-[1,2,3]triazolo[4,5-d]pyrimidin-5-one], the IC50 in experiment [1] and in experiment [2] was at most 10 nM throughout. `Cc1nc2c(N3C[C@@H](C)N([C@@H](c4ccc5cc(F)ccc5n4)C(C)C)C[C@@H]3C)nc(=O)n(C)c2n1C[C@@H]1CCCO1` [Example 48, 6-((2S,5R)-4-((R)-1-(6-fluoroquinolin-2-yl)-2-methylpropyl)-2,5-dimethylpiperazin-1-yl)-3,8-dimethyl-9-(((S)-tetrahydrofuran-2-yl)methyl)-3,9-dihydro-2H-purin-2-one]: the IC50 in experiment [1] and in experiment [2] was at most 10 nM in each case.

As to `CC[C@@H]1CN(c2nc(=O)n(C)c3c2nnn3C[C@H]2CCCO2)[C@@H](C)CN1[C@H](CC)c1ccc(Cl)cc1` [Example 27, 7-((2S,5R)-4-((R)-1-(4-chlorophenyl)propyl)-5-ethyl-2-methylpiperazin-1-yl)-4-methyl-3-(((R)-tetrahydrofuran-2-yl)methyl)-3,4-dihydro-5H-[1,2,3]triazolo[4,5-d]pyrimidin-5-one], the IC50 in experiment [1] is at most 10 nM; in experiment [2], at most 100 nM. Taken in the same sequence, the figures for `Cc1nc2c(N3C[C@@H](C)N(C(c4ccc(C(F)(F)F)cc4)C4CC(F)(F)C4)C[C@@H]3C)nc(=O)n(C)c2n1C[C@H]1OCC[C@H]1O` (single isomer, unassigned) [Example 35] were at most 10 nM and at most 10 nM.

For the origin of these results see patent US20250066363A1, “Bicyclic DGK Inhibitors” (Incyte Corporation, priority 2023, published 2025).
